Experimental data: patent US11279733B2, “Peptide antibiotics” (priority 2017, dated 2022)
Values after ≈ are worked out from the molar mass of the structure shown. Where two headings read alike, the source gives them in different places. Positions of bridges follow the written chain, without caps; N, C: chain ends. Non-standard residues stand in square brackets, D forms with d. Residues, ends and D or L forms follow the SMILES beside them. *: point of attachment. Isonicotinoyl(2-Ph) = O=C(c1ccnc(-c2ccccc2)c1)*; Butanoyl(4-OPh) = O=C(CCCOc1ccccc1)*; X1 = CCCCCCCN1CCC(C(=O)*)CC1; dDab = NCC[C@@H](N)C(=O)O; Dab = NCC[C@H](N)C(=O)O; X5 = O=C(CCCCCCCO)*

Assays:
P. aeruginosa ATCC 27853 = settings: ATCC 27853
Summary of the method: (§1)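 Mid-log cultures grown in Mueller Hinton broth at 37° C were tested by 2-fold broth microdilution at 5×10^5 CFU/mL final. Compounds were dissolved in water and tested over a final range of 32 to 0.015 μg/mL.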

[1] = test system: K. pneumoniae GN_106, PmxR; settings: GN 106, PmxR
Summary of the method: as §1

[2] = test system: K. pneumoniae ATCC 700603, MDR; settings: ATCC 700603
Summary of the method: as §1

[3] = test system: K. pneumoniae ATCC BAA-2146, NDM-1 pos; settings: ATCC BAA-2146
Summary of the method: as §1

K. pneumoniae ATCC 13883 = settings: ATCC 13883
Summary of the method: as §1

A. baumannii ATCC 19606 = settings: ATCC 19606
Summary of the method: as §1

E. coli ATCC 25922 = settings: ATCC 25922
Summary of the method: as §1

[4] = test system: P. aeruginosa GN_043, PmxR
Summary of the method: as §1

[5] = test system: K. pneumoniae GN_102 PmxR; settings: GN 102 PmxR
Summary of the method: as §1

[6] = test system: P. aeruginosa GN_105, PmxR; settings: GN 105, PmxR
Summary of the method: as §1

[7] = test system: S. aureus ATCC 25923, MSSA; settings: ATCC 25923
Summary of the method: as §1

A. baumannii GN_093 PmxR = settings: GN 093 PmxR
Summary of the method: as §1

in vitro [8] = settings: human
Summary of the method: (§2)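 Viability is measured by resazurin reduction (5 μM, 2 h, 37 °C) after cells seeded at 4000 per well are treated with compound for 24 h.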

in vitro [9] = settings: human; remark: listed apart in the source
Summary of the method: as §2

in vitro [10] = settings: human; remark: listed apart in the source
Summary of the method: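 HK2 cells were seeded at 2000 per well in DMEM/F12 with 10% FBS and left to attach for 24 h at 37 °C, 5% CO2. They were then exposed for 24 h to 3-fold peptide dilutions starting from 600 μM solutions in quadruplicate. LDH release was read at 450 nm, and CC50 was fitted from dose-response curves.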

Row | SMILES | MIC P. aeruginosa ATCC 27853 (P. aeruginosa ATCC 27853) [µg/mL] | MIC K. pneumoniae GN_106, PmxR [1] [µg/mL] | MIC K. pneumoniae ATCC 700603, MDR [2] [µg/mL] | MIC K. pneumoniae ATCC BAA-2146, NDM-1 pos [3] [µg/mL] | MIC K. pneumoniae ATCC 13883 (K. pneumoniae ATCC 13883) [µg/mL] | MIC A. baumannii ATCC 19606 (A. baumannii ATCC 19606) [µg/mL] | MIC E. coli ATCC 25922 (E. coli ATCC 25922) [µg/mL] | MIC P. aeruginosa GN_043, PmxR ([4]; P. aeruginosa GN_043, PmxR) [µg/mL] | MIC K. pneumoniae GN_102 PmxR [5] [µg/mL] | MIC P. aeruginosa GN_105, PmxR [6] [µg/mL] | MIC S. aureus ATCC 25923, MSSA [7] [µg/mL] | MIC A. baumannii GN_093 PmxR (A. baumannii GN_093 PmxR) [µg/mL] | CC50 at 24 h (in vitro [8]) [µM] | CC50 at 24 h (in vitro [9]) [µM] | CC50 at 24 h (in vitro [10]) [µM] | MIC P. aeruginosa GN_043, PmxR [4] [µg/mL]
1 | CC(C)C[C@@H]1NC(=O)[C@H](CCN)NC(=O)[C@H](CCN)NC(=O)[C@H](Cc2ccccc2)NC(=O)[C@@H](CC(C)C)NC(=O)[C@H](CCN)NC(=O)[C@@H](NC(=O)[C@@H](CCN)NC(=O)CCCOc2ccccc2)CCNC1=O [compound 6521, 4-phenoxybutanoic acid-D-Dab-cyc[L-Dab-L-Dab-D-Leu-L-Phe-L-Dab-L-Dab-L-Leu]] ({Butanoyl(4-OPh)}-[dDab][Dab][Dab][dL]F[Dab][Dab]L; lactam 2-C) | 2 (≈ 1.93 µM) | 32 (≈ 30.9 µM) | 16 (≈ 15.4 µM) | 16 (≈ 15.4 µM) | 32 (≈ 30.9 µM) | >32 | 8 (≈ 7.72 µM) | 2 (≈ 1.93 µM) | 16 (≈ 15.4 µM) | 16 (≈ 15.4 µM) | >32 | >32 | > 300 | > 300 | 290 | 
2 | CC(C)C[C@@H]1NC(=O)[C@H](CCN)NC(=O)[C@H](CCN)NC(=O)[C@H](CC(C)C)NC(=O)[C@@H](Cc2ccccc2)NC(=O)[C@H](CCN)NC(=O)[C@@H](NC(=O)[C@@H](CCN)NC(=O)CCCCCCCO)CCNC1=O [compound 6522, 8OH-nC7CO-D-Dab-cyc[L-Dab-L-Dab-D-Phe-L-Leu-L-Dab-L-Dab-L-Leu]] (X5-[dDab][Dab][Dab][dF]L[Dab][Dab]L; lactam 2-C) | 2 (≈ 1.97 µM) | >32 | >32 | >32 | >32 | >32 | >32 |  | >32 | >32 | >32 | >32 | > 300 | > 300 | 208 | 2 (≈ 1.97 µM)
3 | CCCCCCCN1CCC(C(=O)N[C@H](CCN)C(=O)N[C@H]2CCNC(=O)[C@H](CC(C)C)NC(=O)[C@H](CCN)NC(=O)[C@H](CCN)NC(=O)[C@H](CC(C)C)NC(=O)[C@@H](Cc3ccccc3)NC(=O)[C@H](CCN)NC2=O)CC1 [compound 6524, 1-heptylpiperidine-4-carboxylic acid-D-Dab-cyc[L-Dab-L-Dab-D-Phe-L-Leu-L-Dab-L-Dab-L-Leu]] (X1-[dDab][Dab][Dab][dF]L[Dab][Dab]L; lactam 2-C) | 1 (≈ 0.923 µM) | 32 (≈ 29.5 µM) | >32 | 32 (≈ 29.5 µM) | >32 | >32 | 32 (≈ 29.5 µM) |  | >32 | 2 (≈ 1.85 µM) | 32 (≈ 29.5 µM) | >32 | > 300 | > 300 | 106 | 0.5 (≈ 0.461 µM)
4 | CC(C)C[C@@H]1NC(=O)[C@H](CCN)NC(=O)[C@H](CCN)NC(=O)[C@H](CC(C)C)NC(=O)[C@@H](Cc2ccccc2)NC(=O)[C@H](CCN)NC(=O)[C@@H](NC(=O)[C@@H](CCN)NC(=O)c2ccnc(-c3ccccc3)c2)CCNC1=O [compound 6525, 3Phe4-PyCO-D-Dab-cyc[L-Dab-L-Dab-D-Phe-L-Leu-L-Dab-L-Dab-L-Leu]] ({Isonicotinoyl(2-Ph)}-[dDab][Dab][Dab][dF]L[Dab][Dab]L; lactam 2-C) | 4 (≈ 3.79 µM) | >32 | 8 (≈ 7.58 µM) | 16 (≈ 15.2 µM) | 16 (≈ 15.2 µM) | >32 | 4 (≈ 3.79 µM) |  | 16 (≈ 15.2 µM) | 8 (≈ 7.58 µM) | >32 | >32 | > 300 | > 300 | > 300 | 2 (≈ 1.9 µM)
